US9832995B2, “Microbial composition” (Rohm and Haas Company, priority 2011, dated 2017)
“And” between values parts separate entries of the source, which are not always exact repeats. Equal values may be shown once.

Assays:
[1] = test system: Escherichia coli (E. coli - ATCC #10536); assay: Automated assessment of efficacy in model surfactant solution (2.85% sodium cocoyl glycinate + 1.85% sodium lauroamphoacetate, pH 10), 15 seconds exposure; assay type: cell-based; conditions: for No. of replicates showing growth (out of 4) / ΔOD 450 nm = OD450 (time = 16 hours) − OD450 (time zero), Mean / ΔOD 590 nm = OD590 (time = 16 hours) − OD590 (time zero), Mean: model surfactant solution, pH 10, 15 s exposure; for MBC: Escherichia coli, ATCC10536, 15 s; for MBC / MBC (% w/v): 2.85% sodium cocoyl glycinate + 1.85% sodium lauroamphoacetate solution at pH 10, E. coli, component alone
Description: In these examples, the efficacy of combinations of actives were tested in a surfactant cleansing formulation comprising 2.85% sodium cocoyl glycinate and 1.85% sodium, lauroamphoacetate.
This corresponds to a 50% in use dilution with water of a neat formulation containing 5.7% cocoyl glycinate and 3.7% sodium lauroamphoacetate during hand washing.
Solutions were prepared such that the concentrations of the surfactant components and test actives were 1.1× the final desired concentration in order to allow for dilution with the bacterial inoculum in the test. The solutions were manually adjusted to pH 10.0 by dropwise addition of sodium hydroxide solution, as measured with a pH meter at ambient temperature.
The efficacy of the combinations of the present invention was determined against Escherichia coli (E. coli—ATCC #10536), at a concentration of approximately 1×10^8 bacteria per mL.
Tests were conducted using standard microliter plate assays using an automated liquid handling system. 270 μl of the surfactant test solution was pipetted into each well of the microtitre plate and 30 μl of the bacterial suspension was then added. After exactly 15 seconds of bacterial exposure, a 30 μl volume of bacterial cells was withdrawn and transferred to 270 μl of D/E quench solution. After 5 minutes in the D/E quench, the optical density (OD) was measured for each plate in turn at two specific wavelengths (450 nm and 590 nm). These provide a dual check of antimicrobial, activity, as the OD450 reading is specific for the yellow colour of D/E quench when bacterial growth is observed, whereas OD590 is specific for the initial purple colour of the D/E quench which is retained if no bacterial growth is observed. After the time zero OD measurements, plates were then incubated at 37° C. overnight (16 hours) before repeating the OD measurements, Delta OD values were calculated by subtracting […] the initial value at time zero. Bacterial growth is observed as an increase in OD450 and a decrease in ΔOD590. To identify antibacterially efficacious systems (those preventing appreciable bacterial growth after incubation), the following threshold changes in OD readings have been adopted: if (1). OD450 increases by less than 0.2 absorbance unit on incubation and (2). OD590 decreases by less than 0.35 unit on incubation. Conversely, where OD450 increases by more than 0.2 AU and OD590 decreases by more than 0.35 unit after incubation, corresponding to a colour shift from purple to yellow, the test system allows bacterial growth and is not deemed efficacious. Four replicate measurements in the same plate have been made for each test system. The number of replicate wells showing either bacterial growth or no growth is also readily assessed by eye by following the colour change.

[2] = test system: Escherichia coli (E. coli - ATCC #10536); assay: Synergy test: high resolution MBC microtiter plate assay, 15 seconds contact, phosphate buffer containing 35% dipropylene glycol; assay type: cell-based; conditions: E. coli 10536; for SI (Synergy Index = Qa/QA + Qb/QB): for Qa and Qb, less than one = synergy; for MBC of the component acting alone (QA or QB; Qa with Qb = 0, or Qb with Qa = 0): complete kill in 15 seconds, phosphate buffer with 35% DPG
Source text: The concentrations and ratios may also vary under different test conditions or with different test methods.
One measure of synergy is the industrially accepted method described by Kull, F. C.; Eisman, P. C.; Sylwestrowicz, H. D. and Mayer, R. L., in Applied Microbiology 9:538-541 (1961), using the ratio determined by the formula: Qa/QA+Qb/QB=Synergy Index (“SI”) wherein: • QA=concentration of compound A (first component) in percent, acting alone, which produced an end point (MBC of Compound A). • Qa=concentration of compound A in percent, in the mixture, which produced an end point. • QB=concentration of compound B (second component) in percent, acting alone, which produced an end point (MBC of Compound B). • Qb=concentration of compound B in percent, in the mixture, which produced an end point.
When the sum Qa/QA and Qb/QB is greater than one, antagonism is indicated. […] The lower the SI, the greater is the synergy shown by that particular mixture. The minimum biocidal concentration (MBC) of a microbicide is the lowest concentration tested under a specific set of conditions that provides complete kill of the tested microorganisms.
Synergy tests were conducted using standard microliter plate assays with phosphate buffer containing 35% dipropylene glycol (DPG). In this method, a wide range of combinations of chemicals was tested by conducting high resolution MBC assays of Component (A) in the presence of various concentrations of Component (B). High resolution MBCs were determined by adding varying amounts of microbicide to one column of a microliter plate and doing subsequent […] dilutions using an automated liquid handling system to obtain a series of closely spaced endpoints. The MBC plate was inoculated one column at a time with the test microorganism. An aliquot of the inoculated well was transferred at 15 seconds to a plate containing a neutralising agent (D/E Neutralising Broth), mixed and held for 5 minutes before being transferred to a growth plate-containing trypticase soy broth (TSB). The TSB plate was incubated at 37° C. and read for the presence/absence of growth at 24 hours. The lowest level tested that provided complete kill (as evidenced by no growth in the microtitre plate) of the test organisms in 15 seconds is the minimum biocidal concentration (MBC).
The synergy of the combinations of the present invention was determined against a bacterium, Escherichia coli (E. coli—ATCC #10536), at a concentration of approximately 1×10^8 bacteria per mL. This microorganism is representative of natural contaminants in many consumer and industrial applications.

S. aureus 6538 = assay: Antimicrobial efficacy of actives against S. aureus in water; assay type: cell-based, Staphylococcus aureus
[3] = single active alone at 0.175% w/v
[4] = single active alone at 0.2% w/v
[5] = single active alone at 0.5% w/v
[6] = single active alone at 0.1% w/v

Molecule | No. of replicates showing growth (out of 4) [1, 4] | ΔOD 450 nm = OD450 (time = 16 hours) − OD450 (time zero), Mean [1, 4] | ΔOD 590 nm = OD590 (time = 16 hours) − OD590 (time zero), Mean [1, 4] | No. of replicates showing growth (out of 4) ([1]; single active alone at […] w/v) | ΔOD 450 nm = OD450 (time = 16 hours) − OD450 (time zero), Mean ([1]; single active alone at […] w/v) | ΔOD 590 nm = OD590 (time = 16 hours) − OD590 (time zero), Mean ([1]; single active alone at […] w/v) | SI (Synergy Index = Qa/QA + Qb/QB) [2] | other results
Cc1cc(O)c(C(C)C)cc1Cl [4-chloro-2-isopropyl-5-methylphenol, reference compound] | 4 | −0.51 | 0.60 | 4 | −0.49 | 0.59 |  | No. of replicates showing growth (out of 4) [1, 3]: 4; ΔOD 450 nm = OD450 (time = 16 hours) − OD450 (time zero), Mean [1, 3]: −0.49; ΔOD 590 nm = OD590 (time = 16 hours) − OD590 (time zero), Mean [1, 3]: 0.58
Oc1ccccc1C1CCCC1 [2-cyclopentylphenol] |  |  |  |  |  |  | 1.00 | 
C=C(C)[C@@H]1CC[C@@H](C)C[C@H]1O [(1R,2S,5R)-5-methyl-2-(prop-1-en-2-yl)cyclohexanol] |  |  |  |  |  |  | 1.00 | 
CC(C)(C)c1ccc(O)c(O)c1 [4-tert-butylbenzene-1,2-diol] |  |  |  |  |  |  |  | MBC [1]: > 2000 µg/mL
Oc1ccc(C2CCCC2)cc1 [4-cyclopentylphenol] |  |  |  |  |  |  | 1.00 | 
C=C(C)C1CCC(C)CC1O (centres unmarked) [Isopulegol, 5-methyl-2-(prop-1-en-2-yl)cyclohexanol] |  |  |  | 4 |  | 0.64 |  | ΔOD 450 nm = OD450 (time = 16 hours) − OD450 (time zero), Mean [1, 5]: −0.09
C=C(C)C1CCC(C)C(O)C1 (centres unmarked) [2-methyl-5-(prop-1-en-2-yl)cyclohexanol] | 4 | −0.49 | 0.63 | 4 | −0.43 | 0.66 | 1.00 | 
Cc1ccc(C(C)C)c(O)c1O [3-isopropyl-6-methylbenzene-1,2-diol] |  |  |  |  |  |  |  | MBC [1]: > 2000 µg/mL
C=C(C)C1CC=C(C)C(O)C1 (centres unmarked) [2-methyl-5-(prop-1-en-2-yl)cyclohex-2-enol] |  |  |  | 4 |  |  | 1.0 | Log Reduction (S. aureus 6538; […] carveol): 0.08; No. of replicates showing growth (out of 4) [1, 5]: 0; ΔOD 450 nm = OD450 (time = 16 hours) − OD450 (time zero), Mean [1, 5]: 0.23; ΔOD 590 nm = OD590 (time = 16 hours) − OD590 (time zero), Mean [1, 5]: 0.20
Oc1ccc(Cc2ccccc2)cc1 [4-hydroxydiphenylmethane] | 4 | −0.52 | 0.61 | 4 | −0.55 | 0.54 | 1.00 | MBC of the component acting alone (QA or QB; Qa with Qb = 0, or Qb with Qa = 0) [2]: 1.0 weight % and 0.6 weight %; MBC (% w/v) [1]: >0.2 % w/v; No. of replicates showing growth (out of 4) [1, 6]: 4; ΔOD 450 nm = OD450 (time = 16 hours) − OD450 (time zero), Mean [1, 6]: −0.58; ΔOD 590 nm = OD590 (time = 16 hours) − OD590 (time zero), Mean [1, 6]: 0.52
Oc1cccc2c1CCCC2 [5,6,7,8-tetrahydronaphthalen-1-ol] |  |  |  |  |  |  |  | MBC of the component acting alone (QA or QB; Qa with Qb = 0, or Qb with Qa = 0) [2]: 0.6 weight %
Oc1ccccc1Cc1ccccc1 [2-hydroxydiphenylmethane] | 4 | −0.51 | 0.63 | 4 | −0.49 | 0.64 | 1.00 | MBC of the component acting alone (QA or QB; Qa with Qb = 0, or Qb with Qa = 0) [2]: 0.8 weight % and 0.6 weight % and 1.0 weight % and 0.5 weight %; MBC (% w/v) [1]: >0.2 % w/v; No. of replicates showing growth (out of 4) [1, 6]: 4; ΔOD 450 nm = OD450 (time = 16 hours) − OD450 (time zero), Mean [1, 6]: −0.51; ΔOD 590 nm = OD590 (time = 16 hours) − OD590 (time zero), Mean [1, 6]: 0.62
cyclopentyl phenol |  |  |  |  |  |  |  | Log Reduction (S. aureus 6538; 0.05% cyclopentyl phenol): 1.9
